Data: ChEMBL document CHEMBL1139626, “Total asymmetric synthesis of (-)-conduramine B-1 and of its enantiomer. N-Benzyl derivatives of conduramine B-1 are beta-glucosidase inhibitors” (Bioorg Med Chem Lett, 2005)
Calls of active or inactive are those of the source. No cut-off for these calls is given here.

What was measured:
[1] = target: T1, Glucoamylase 1 (Rhizopus oryzae) (UniProt P07683); test: Inhibition against Amyloglucosidase from Rhizopus mold at 1 mM; (ni=no inhibition)
T1 sequence (whole entry): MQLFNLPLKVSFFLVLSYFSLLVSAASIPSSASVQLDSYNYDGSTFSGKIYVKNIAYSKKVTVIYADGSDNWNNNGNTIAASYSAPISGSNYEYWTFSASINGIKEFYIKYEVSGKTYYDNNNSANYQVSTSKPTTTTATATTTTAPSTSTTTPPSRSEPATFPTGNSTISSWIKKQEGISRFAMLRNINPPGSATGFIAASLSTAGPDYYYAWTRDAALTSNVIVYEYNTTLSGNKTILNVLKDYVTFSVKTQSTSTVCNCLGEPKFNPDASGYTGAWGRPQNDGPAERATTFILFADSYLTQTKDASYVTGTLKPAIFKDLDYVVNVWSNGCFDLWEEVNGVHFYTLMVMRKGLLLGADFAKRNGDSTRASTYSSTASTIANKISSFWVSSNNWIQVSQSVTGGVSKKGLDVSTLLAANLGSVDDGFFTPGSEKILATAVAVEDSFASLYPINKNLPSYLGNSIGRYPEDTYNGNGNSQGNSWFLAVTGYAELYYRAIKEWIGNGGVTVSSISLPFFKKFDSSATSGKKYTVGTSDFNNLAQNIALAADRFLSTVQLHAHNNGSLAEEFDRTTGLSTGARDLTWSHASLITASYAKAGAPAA

Prunus dulcis [2] = test: Percent inhibition against Beta Glucosidase from Almonds at 1 mM
[3] = Inhibition against Alpha Glucosidase from yeast at 1 mM; (ni=no inhibition)
[4] = target: Glucoamylase (Aspergillus niger) (UniProt P69328); test: Inhibition against Amyloglucosidase from Aspergillus niger at 1 mM; (ni=no inhibition)
[5] = Inhibitory concentration against Beta Glucosidase Almonds; design: species or system Prunus dulcis
[6] = target: T2, Exo-1,4-beta-xylosidase xlnD (Aspergillus niger) (UniProt O00089); test: Inhibition against Beta-xylosidase from Aspergillus niger at 1 mM; (ni=no inhibition)
T2 sequence (whole entry): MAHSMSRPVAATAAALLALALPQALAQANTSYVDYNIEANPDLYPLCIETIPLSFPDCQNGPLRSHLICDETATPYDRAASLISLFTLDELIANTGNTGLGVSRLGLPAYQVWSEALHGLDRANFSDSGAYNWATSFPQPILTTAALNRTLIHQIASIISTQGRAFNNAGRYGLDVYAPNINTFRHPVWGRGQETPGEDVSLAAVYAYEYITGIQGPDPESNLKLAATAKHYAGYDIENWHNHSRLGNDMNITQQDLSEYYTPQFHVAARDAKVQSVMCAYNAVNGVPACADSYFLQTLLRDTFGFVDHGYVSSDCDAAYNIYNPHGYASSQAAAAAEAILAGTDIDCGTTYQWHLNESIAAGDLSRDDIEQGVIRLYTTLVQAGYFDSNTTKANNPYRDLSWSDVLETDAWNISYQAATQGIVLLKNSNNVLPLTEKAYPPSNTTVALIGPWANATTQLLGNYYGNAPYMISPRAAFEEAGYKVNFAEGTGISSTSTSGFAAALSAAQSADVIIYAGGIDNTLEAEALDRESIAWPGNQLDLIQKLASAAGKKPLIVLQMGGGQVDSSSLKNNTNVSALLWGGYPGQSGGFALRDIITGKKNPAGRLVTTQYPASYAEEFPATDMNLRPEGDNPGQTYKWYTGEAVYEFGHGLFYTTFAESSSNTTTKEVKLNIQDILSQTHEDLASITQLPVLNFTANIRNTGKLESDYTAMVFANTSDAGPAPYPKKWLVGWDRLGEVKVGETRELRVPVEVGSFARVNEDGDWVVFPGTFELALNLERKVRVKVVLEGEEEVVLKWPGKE

[7] = target: T3, Alpha-glucosidase (Oryza sativa Japonica Group) (UniProt Q9LGC6); test: Inhibition against Alpha Glucosidase from rice at 1 mM; (ni=no inhibition)
T3 sequence (whole entry): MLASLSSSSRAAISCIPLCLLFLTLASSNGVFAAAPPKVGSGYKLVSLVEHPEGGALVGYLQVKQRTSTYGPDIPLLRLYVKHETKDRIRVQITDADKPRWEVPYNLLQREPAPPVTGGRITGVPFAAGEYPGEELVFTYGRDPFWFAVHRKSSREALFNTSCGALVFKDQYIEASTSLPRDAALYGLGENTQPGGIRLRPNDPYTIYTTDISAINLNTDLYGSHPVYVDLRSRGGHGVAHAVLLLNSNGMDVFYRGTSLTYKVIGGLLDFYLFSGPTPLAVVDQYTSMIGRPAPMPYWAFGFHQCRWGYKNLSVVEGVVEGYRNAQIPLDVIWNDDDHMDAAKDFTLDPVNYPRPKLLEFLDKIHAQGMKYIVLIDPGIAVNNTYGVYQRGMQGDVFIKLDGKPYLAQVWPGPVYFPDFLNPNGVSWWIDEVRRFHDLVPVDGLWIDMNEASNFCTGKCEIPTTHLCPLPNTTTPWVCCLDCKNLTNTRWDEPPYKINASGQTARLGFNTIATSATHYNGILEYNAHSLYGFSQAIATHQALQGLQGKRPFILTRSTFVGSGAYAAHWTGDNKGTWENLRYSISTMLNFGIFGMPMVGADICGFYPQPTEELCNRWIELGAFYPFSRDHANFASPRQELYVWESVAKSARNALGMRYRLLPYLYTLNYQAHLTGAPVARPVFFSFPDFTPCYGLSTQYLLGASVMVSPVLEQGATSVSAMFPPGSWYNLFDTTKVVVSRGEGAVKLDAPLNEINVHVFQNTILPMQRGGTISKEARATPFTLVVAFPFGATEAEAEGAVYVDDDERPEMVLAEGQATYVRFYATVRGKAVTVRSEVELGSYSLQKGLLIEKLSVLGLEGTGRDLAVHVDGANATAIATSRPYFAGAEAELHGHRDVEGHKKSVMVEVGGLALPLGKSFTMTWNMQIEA

[8] = target: T1, Glucoamylase 1 (Rhizopus oryzae); test: Percent inhibition against Amyloglucosidase from Rhizopus mold at 1 mM
Prunus dulcis [9] = test: Inhibition against Beta Glucosidase from Almonds at 1 mM
[10] = Inhibitory concentration against Beta Glucosidase from Almonds; design: species or system Prunus dulcis
[11] = target: T2, Exo-1,4-beta-xylosidase xlnD (Aspergillus niger); test: Inhibition against Beta-xylosidase from Aspergillus niger at 1 mM concentration
[12] = target: Beta-glucosidase A (Caldicellulosiruptor saccharolyticus) (UniProt P10482); test: Percent inhibition against Beta Glucosidase from Caldocellum saccharolyticum at 1 mM
[13] = target: Glucoamylase (Aspergillus niger) (UniProt P69328); test: Percent inhibition against Amyloglucosidase from Aspergillus niger at 1 mM concentration
[14] = target: T2, Exo-1,4-beta-xylosidase xlnD (Aspergillus niger); test: Percent inhibition against Beta-xylosidase from Aspergillus niger at 1 mM; (ni=no inhibition)
[15] = target: T2, Exo-1,4-beta-xylosidase xlnD (Aspergillus niger); test: Percent inhibition against Beta-xylosidase from Aspergillus niger at 1 mM
Beta-glucosidase A [16] = target: T4, Beta-glucosidase A (Caldicellulosiruptor saccharolyticus, UniProt P10482); test: Inhibitory concentration against Beta Glucosidase from Caldocellum saccharolyticum
[17] = Inhibitory activity against Beta Glucosidase from Almonds; design: species or system Prunus dulcis
Beta-glucosidase A [18] = target: T4, Beta-glucosidase A; test: Inhibitory concentration against Beta Glucosidase Caldocellum saccharolyticum
[19] = Percent inhibition against Alpha Glucosidase from yeast at 1 mM
Prunus dulcis [20] = test: Inhibition against Beta Glucosidase from Almonds at 1 mM; (ni=no inhibition)
[21] = target: Beta-glucosidase A (Caldicellulosiruptor saccharolyticus) (UniProt P10482); test: Inhibition against Beta Glucosidase from Caldocellum saccharolyticum at 1 mM; (ni=no inhibition)

Glucoamylase (Aspergillus niger), sequence (P69328 whole entry): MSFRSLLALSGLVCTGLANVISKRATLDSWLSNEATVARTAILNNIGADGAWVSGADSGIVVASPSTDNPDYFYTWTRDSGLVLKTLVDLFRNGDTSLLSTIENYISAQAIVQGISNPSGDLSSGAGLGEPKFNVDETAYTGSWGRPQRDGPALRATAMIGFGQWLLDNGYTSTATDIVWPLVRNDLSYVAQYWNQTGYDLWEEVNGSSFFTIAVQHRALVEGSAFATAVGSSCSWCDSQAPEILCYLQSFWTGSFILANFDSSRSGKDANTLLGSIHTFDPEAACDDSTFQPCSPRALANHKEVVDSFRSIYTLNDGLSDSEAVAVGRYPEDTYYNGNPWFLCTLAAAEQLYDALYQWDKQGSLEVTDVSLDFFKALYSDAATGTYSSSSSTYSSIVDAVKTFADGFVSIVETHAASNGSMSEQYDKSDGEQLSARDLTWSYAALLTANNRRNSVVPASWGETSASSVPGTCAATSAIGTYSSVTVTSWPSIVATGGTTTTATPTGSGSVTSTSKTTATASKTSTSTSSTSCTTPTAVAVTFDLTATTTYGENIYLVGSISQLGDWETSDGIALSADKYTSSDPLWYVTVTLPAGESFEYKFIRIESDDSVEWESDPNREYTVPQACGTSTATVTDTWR
T4 sequence (P10482 whole entry): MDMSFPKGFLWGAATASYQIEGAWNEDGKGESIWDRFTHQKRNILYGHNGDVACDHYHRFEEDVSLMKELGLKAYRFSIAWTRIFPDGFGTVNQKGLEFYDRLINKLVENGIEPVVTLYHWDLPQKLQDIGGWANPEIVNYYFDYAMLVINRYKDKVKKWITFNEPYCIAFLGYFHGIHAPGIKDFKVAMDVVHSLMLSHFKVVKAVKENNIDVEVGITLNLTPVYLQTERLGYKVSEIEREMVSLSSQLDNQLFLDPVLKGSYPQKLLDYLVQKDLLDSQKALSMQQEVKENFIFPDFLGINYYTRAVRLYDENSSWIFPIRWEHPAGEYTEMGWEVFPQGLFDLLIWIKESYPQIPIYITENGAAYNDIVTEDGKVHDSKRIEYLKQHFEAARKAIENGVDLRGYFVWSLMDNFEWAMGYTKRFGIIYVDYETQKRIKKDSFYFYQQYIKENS
Beta-glucosidase A (Caldicellulosiruptor saccharolyticus), sequence (P10482 whole entry): as above

Structure (SMILES): CCCCCCCCNC1C=CC(O)C(O)C1O (racemic)
- inhibition [1]: inactive
- inhibition (Prunus dulcis [2]): 85%
- inhibition [3]: inactive
- inhibition [4]: inactive
- IC50 [5]: 69 µM
- inhibition [6]: inactive
- inhibition [7]: inactive

Structure (SMILES): CCCNC1C=CC(O)C(O)C1O (racemic)
- inhibition [8]: 30%
- inhibition (Prunus dulcis [9]): 80%
- inhibition [3]: inactive
- inhibition [4]: inactive
- IC50 [10]: 66 µM
- inhibition [6]: inactive
- inhibition [7]: inactive

Structure (SMILES): OC1C=CC(NCc2ccccc2)C(O)C1O (stereo in doubt; 4e)
- inhibition [1]: inactive
- inhibition (Prunus dulcis [2]): 96%
- inhibition [11]: 74%
- inhibition [3]: inactive
- inhibition [4]: inactive
- inhibition [12]: 43%
- inhibition [7]: inactive

Structure (SMILES): Oc1ccc(CNC2C=CC(O)C(O)C2O)cc1 (stereo in doubt; 4f)
- inhibition [8]: 57%
- inhibition [13]: 31%
- inhibition (Prunus dulcis [2]): 93%
- inhibition [14]: 67%
- inhibition [3]: inactive
- inhibition [12]: 56%
- inhibition [7]: inactive

Structure (SMILES): COc1ccc(CNC2C=CC(O)C(O)C2O)cc1 (stereo in doubt; 4g)
- inhibition [1]: inactive
- inhibition (Prunus dulcis [2]): 95%
- inhibition [15]: 74%
- inhibition [3]: inactive
- inhibition [4]: inactive
- inhibition [12]: 68%
- inhibition [7]: inactive

Structure (SMILES): OC1C=CC(NCc2ccc(Cl)cc2)C(O)C1O (stereo in doubt; 4h)
- IC50 (Beta-glucosidase A [16]): 185 µM
- IC50 [10]: 35 µM

Structure (SMILES): OC1C=CC(NCc2ccc(-c3ccccc3)cc2)C(O)C1O (stereo in doubt; 4i)
- Ki [17]: 8 µM
- IC50 (Beta-glucosidase A [18]): 35 µM
- IC50 [10]: 32 µM

Structure (SMILES): OC1C=CC(NCc2ccc(Oc3ccccc3)cc2)C(O)C1O (stereo in doubt; 4j)
- Ki [17]: 13 µM
- IC50 (Beta-glucosidase A [16]): 52 µM
- IC50 [10]: 43 µM

Structure (SMILES): Oc1ccccc1CNC1C=CC(O)C(O)C1O (stereo in doubt; 4k)
- inhibition [19]: 41%
- inhibition [8]: 29%
- inhibition (Prunus dulcis [20]): inactive
- inhibition [4]: inactive
- inhibition [6]: inactive
- inhibition [21]: inactive
- inhibition [7]: inactive
